Reference: paper PMC5382548 (Scientific Reports, 2015)
Where “and” joins values, the source holds several entries; their conditions need not be identical. Equal values may be shown once.

Key:
[1] = system: double-stranded DNA (26ds); experiment: Spectrofluorimetric titration with 26ds DNA; format: binding; details: for Apparent association constant Ka (26ds): ligand 1 μM, K-cacodylate pH 7.4, 60 mM K+, 25°C; for Hill constant h (26ds): one-site saturation binding Hill slope model
Description: To characterize the binding of IQc to DNA structures, spectrofluorimetric titration assays were performed with the non-substituted (2a), mono-alkyldiamine (2d) and di-alkyldiamine (3e) derivatives using un-labelled KRAS21R G4 and 26ds-DNA. […] Their fluorescence intensity was proportional to concentration up to 10 μM. […] The fluorescence titration data (Figure 4) was fitted to the Scatchard model[25] (Figure 4, insets). […] Scatchard plots of 2d and 3e (Figure 4b–c, insets) are all concave-down nonlinear curves, which may denote different positive cooperative binding sites in G4, with more than one equivalent and non-independent binding sites. […] Therefore, association constants for 2d and 3e were obtained from the one-site saturation binding Hill slope model (Figure 4b–c). These are apparent binding constants, i.e. they are macroscopic Ka which reflect the total binding.
Figure 4 Fluorescence data of (a) 2a, (b) 2d, and (c) 3e (1 μM) in K-cacodylate buffer (pH 7.4, containing 60 mM K^+) at 25°C, titrated with KRAS21R and HT21 G4s, and 26ds, fitted to the saturation binding equations and Scatchard model (insets).
Fluorescence data were collected with a λex of 290 nm and a λem around 475 nm for 2d and 3e, and a λex of 275 nm and a λem around 460 for 2a. Test compounds were prepared as 1 mM in HPLC-grade water (10% DMSO) stock solutions. The rest of the dilutions were performed using K-cacodylate buffer (pH = 7.4, containing 60 mM K^+). The G4 single-strand oligonucleotide sequences were initially diluted from the storage solution (100 μM) with K-cacodylate, to a stock solution at 25 μM. The titration data were obtained by adding aliquots of previously annealed G4 (heating to 95°C for 10 min, followed by slow cooling to RT) to a solution of the indolo[3,2-c]quinoline ligand (1 μM) in K-cacocylate buffer at 25°C (additional details in Supplementary Information).
Figure S7. Fluorescence titrations of 1 μM indolo[3,2-c]quinoline 2d (1µM) with KRAS21R G4 and 26ds DNA in K-cacodylate buffer pH 7.4, containing 60 mM K+ at 25 °C.
Concentration of DNA increase from the top to the bottom (grey lines) Excitation […]
Figure S8. Fluorescence titrations of 1 μM indolo[3,2-c]quinoline 3e (1µM) with KRAS21R […]
The titration data obtained were used to construct Scatchard plots with the concentration of bound and free ligand (Cb and Cf, respectively). […]
number of moles of ligand bound to 1 mol of G4 (r = Cb/CDNA) were calculated.
Saturation binding isotherms were represented as Scatchard plots, by plotting r/Cf versus r and evaluated according to the model of McGhee and von Hippel. Dissociation constants were determined by fitting the titration experimental data to one-site saturation binding equation or to one-site saturation binding to the Hill slope equation supplied with the GraphPad PRISM software (GraphPad, Version 5.00, San Diego, CA).
Association constants (Ka) were calculated from dissociation constants (Kd). Scatchard lines represented in the Scatchard plots were calculated from the data fitting to the binding equations (x = 0, y = Fmax/Kd; x = Fmax , y = 0; slope = -Ka). […]

MCF7 (breast) = experiment: SRB short-term cytotoxicity assay, MCF7; format: cell-based; details: Homo sapiens, 96 h
Description: Short-term anti-proliferative assays were carried out by two different assays using a panel of human cancer and non-malignant human cell lines. […] The transformed human embryonic kidney cell line HEK293T (wt KRAS) was sensitive to all tested drugs, including TMPyP4, a cationic porphyrin established as a G4 ligand, as well as the anticancer drug 5-fluorouracil (5-FU).
Human cell lines, breast carcinoma (MCF7), lung carcinoma (A549), pancreatic cancer (MIA PaCa2, Panc-1), immortalised telomerase-negative human lung fibroblast (ALT) and normal human lung fibroblast (WI-38), were all purchased from American Type Cell Culture (ATCC). Cell lines were maintained in appropriate medium supplemented with 10% fetal bovine serum (Invitrogen, UK), 2 mM L-glutamine (Invitrogen, Netherlands), and other components as specified by the suppliers. All cell lines were maintained at 37°C, 5% CO2, and routinely passaged. Short-term growth inhibition was measured using the SRB assay as described previously[43] (additional details described in Supplementary Information). […]
Sulforhodamine B (SRB) short-term cytotoxicity assay
Cells were seeded at appropriate densities into the wells of 96 well plates in their corresponding medium and incubated overnight to allow the cells to attach. Subsequently cells were exposed to various concentrations of freshly made solutions of drugs and incubated for 96 h. The cells were subsequently fixed with ice-cold trichloacetic acid (TCA) (10%, w/v) for 30 min and stained with 0.4% SRB dissolved in 1% acetic acid for 15 min.
All incubations were carried out at room temperature except for TCA fixation, which was at 4 °C. […]
After electrophoretic transfer onto nitrocellulose membranes, immunoblots were blocked with 5% milk solution, and next incubated overnight at 4 °C with primary mouse monoclonal antibody reactive to KRAS/p53 (#sc-30/sc-126; Santa Cruz Biotechnology Inc., Santa Cruz, CA, USA). […] Steady-state protein levels were expressed as mean ±SEM from at least three independent experiments.

| SMILES | Apparent association constant Ka (26ds) [1] | IC50 (MCF7 (breast)) [nM] | Hill constant h (26ds) [1] |
| --- | --- | --- | --- |
| Cn1cc2c3ccccc3nc-2c2cc(Br)ccc21 [2a, 2-bromo-5-methyl-indolo[3,2-c]quinoline] | 0.8 × 10^6 M^−1 and 0.8/-- × 10^6 M^−1 | 2880 | – |
| CCN(CC)CCCNc1ccc2c(c1)c1[nH]c3ccccc3c1c[n+]2C [2d] | 2.8e+06 M⁻¹ | 2400 | 1.5 |
| CCN(CC)CCCNc1ccc2c(c1)[nH]c1c2c[n+](C)c2ccc(NCCCN(CC)CC)cc12.[Cl-] [3e] | 3.2e+06 M⁻¹ | 11400 | 2.5 |
